Columns and labels:
IFN = experiment: Cytokine Induction in Human Cells: interferon (IFN) secreted by PBMCs, A549/encephalomyocarditis bioassay; format: cell-based; details: 18 to 24 hours; further: call rule not given here
In short: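 Human PBMCs from healthy donors at 1.5-2×10^6 cells/mL in RPMI with 10% FBS, exposed to compounds (typically 0.1 to 100 μM, ≤1% DMSO) for 18 to 24 h at 37° C. Secreted IFN measured by A549/encephalomyocarditis virus cytopathic-effect bioassay, in alpha reference units/mL against NIH human leukocyte IFN standard.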

TNF = experiment: Cytokine Induction in Human Cells: tumor necrosis factor (TNF) secreted by PBMCs, ELISA; format: cell-based; details: 18 to 24 hours; further: call rule not given here
In short: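 Human donor PBMCs at 1.5-2×10^6 cells/mL in RPMI with 10% FBS were exposed to compound, generally at 0.1 to 100 μM (≤1% DMSO final), for 18 to 24 h at 37 °C. Secreted TNF in supernatant was measured by ELISA and reported as pg/mL.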

interferon α = experiment: Interferon (α) Induction in Human Cells (PBM's, 48 hours, A549 bioassay); format: cell-based; design: key: +: indicates that the compound induced interferon α at that particular concentration; −: indicates that the compound did not induce interferon α at that particular concentration; ±: indicates that the results were equivocal at that particular concentration; details: 48 hours incubation
Procedure: An in vitro human blood cell system was used to assess interferon induction by compounds of the invention. Activity is based on the measurement of interferon secreted into culture media. Interferon is measured by bioassay.
Whole blood was collected by venipuncture into EDTA vacutainer tubes. Peripheral blood mononuclear cells (PBM's) were separated from whole blood by using either LeucoPREP™ Brand Cell Separation Tubes (available from Becton Dickinson) or Ficoll-Paque® solution (available from Pharmacia LKB Biotechnology Inc, Piscataway, N.J.). The PBM's were suspended at 1×10^6/mL in RPMI 1640 media (available from GIBCO, Grand Island, N.Y.) containing 25 mM HEPES (N-2-hydroxyethylpiperazine-N′-2-ethanesulfonic acid) and L-glutamine (1% penicillin-streptomycin solution added) with 10% heat inactivated (56° C. for 30 minutes) autologous serum added. 200 μL portions of PBM suspension were added to 96 well (flat bottom) MicroTest III sterile tissue culture plates.
The compounds were solubilized in ethanol, dimethyl sulfoxide or tissue culture water then diluted with tissue culture water, 0.01N sodium hydroxide or 0.01N hydrochloric acid (The choice of solvent will depend on the chemical characteristics of the compound being tested.). Ethanol or DMSO concentration should not exceed a final concentration of 1% for addition to the culture wells. Compounds were initially tested in a concentration range of from about 0.1 μg/mL to about 5 μg/mL. Compounds which show induction at a concentration of 0.5 μg/mL were then tested in a wider concentration range.
The solution of test compound was added in a volume (less than or equal to 50 μL) to the wells containing 200 μL of diluted whole blood or of PBM's in media. Solvent and/or media was added to control wells (wells with no test compound) and as needed to adjust the final volume of each well to 250 μL. The plates were covered with plastic lids, vortexed gently and then incubated for 48 hours at 37° C. with a 5% carbon dioxide atmosphere.
Following incubation, the plates were covered with parafilm and then centrifuged at 1000 rpm for 10 to 15 minutes at 4° C. in a Damon IEC Model CRU-5000 centrifuge. Media (about 200 μL) was removed from 4 to 8 wells and pooled into 2 mL sterile freezing vials. Samples were maintained at −70° C. until analysis.
Interferon was determined by bioassay using A549 human lung carcinoma cells challenged with encephalomyocarditis. The details of the bioassay method have been described by G. L. Brennan and L. H. Kronenberg in “Automated Bioassay of Interferons in Micro-test Plates”, Biotechniques, June/July 78, 1983, incorporated herein by reference. Briefly stated the method is as follows: interferon dilutions and A549 cells are incubated at 37° C. for 12 to 24 hours. The incubated cells are infected with an inoculum of encephalomyocarditis virus. The infected cells are incubated for an additional period at 37° C. before quantifying for viral cytopathic effect. The viral cytopathic effect is quantified by staining followed by spectrophotometric absorbance measurements. Results are expressed as alpha reference units/mL based on the value obtained for NIH HU IF-L standard. The interferon was identified as essentially all interferon alpha by testing in checkerboard neutralization assays against rabbit anti-human interferon (beta) and goat anti-human interferon (alpha) using A549 cell monolayers challenged with encephalomyocarditis virus.

SMILES	melting point	IFN induction (IFN; Dose Concentration 1.0 μM)	IFN induction (IFN; Dose Concentration 10.0 μM)	IFN induction (IFN; Dose Concentration 100.0 μM)	TNF induction (TNF; Dose Concentration 1.0 μM)	TNF induction (TNF; Dose Concentration 10.0 μM)	TNF induction (TNF; Dose Concentration 100.0 μM)	Interferon (α) Induction in Human Cells (interferon α; Dose Concentration 0.01 μg/mL)	Interferon (α) Induction in Human Cells (interferon α; Dose Concentration 0.05 μg/mL)	Interferon (α) Induction in Human Cells (interferon α; Dose Concentration 0.10 μg/mL)	Interferon (α) Induction in Human Cells (interferon α; Dose Concentration 0.50 μg/mL)	Interferon (α) Induction in Human Cells (interferon α; Dose Concentration 1.0 μg/mL)	Interferon (α) Induction in Human Cells (interferon α; Dose Concentration 5.0 μg/mL)	Interferon (α) Induction in Human Cells (interferon α; Dose Concentration 10.0 μg/mL)	Interferon (α) Induction in Human Cells (interferon α; Dose Concentration 25.0 μg/mL)	Interferon (α) Induction in Human Cells (interferon α; Dose Concentration 50.0 μg/mL)	IFN induction (IFN; Dose Concentration 0.1 μM)	TNF induction (TNF; Dose Concentration 0.1 μM)
Cc1nc2c(N)nc3c(c2n1CC(C)C)CCNC3 [Example 26, 6,7,8,9-Tetrahydro-2-methyl-1-(2-methylpropyl)-1H-imidazo[4,5-c][1,7]naphthyridin-4-amine]	226 to 230 °C	+	−	+	+	±	−	−	−	−	−	−	±	+	+			
CC(C)Cn1cnc2c(N)nc3c(c21)CCNC3 [Example 23, 6,7,8,9-Tetrahydro-1-(2-methylpropyl)-1H-imidazo[4,5-c][1,7]naphthyridin-4-amine]	220 to 223 °C	+	+	−	−	±	−					−	−	−	−			
CCCCc1nc2c(N)nc3cnccc3c2n1CC(C)C [Example 27, 2-Butyl-1-(2-methylpropyl)-1H-imidazo[4,5-c][1,7]naphthyridin-4-amine]	213 to 214 °C	+	+	+	+	+	+	−	−	+	+	+	+	+	+			
CC(C)Cn1cnc2c(N)nc3c(c21)CCCN3 [Example 10, 6,7,8,9-Tetrahydro-1-(2-methylpropyl)-1H-imidazo[4,5-c][1,8]naphthyridin-4-amine]	231 to 233 °C	+	+	+	−	−	+	−	−	−	−	+	+	+	+	+	+	−

The next lines start with results.

melting point	SMILES	IFN induction (IFN; Dose Concentration 1.0 μM)	IFN induction (IFN; Dose Concentration 10.0 μM)	IFN induction (IFN; Dose Concentration 100.0 μM)	TNF induction (TNF; Dose Concentration 1.0 μM)	TNF induction (TNF; Dose Concentration 10.0 μM)	TNF induction (TNF; Dose Concentration 100.0 μM)	Interferon (α) Induction in Human Cells (interferon α; Dose Concentration 0.01 μg/mL)	Interferon (α) Induction in Human Cells (interferon α; Dose Concentration 0.05 μg/mL)	Interferon (α) Induction in Human Cells (interferon α; Dose Concentration 0.10 μg/mL)	Interferon (α) Induction in Human Cells (interferon α; Dose Concentration 0.50 μg/mL)	Interferon (α) Induction in Human Cells (interferon α; Dose Concentration 1.0 μg/mL)	Interferon (α) Induction in Human Cells (interferon α; Dose Concentration 5.0 μg/mL)	Interferon (α) Induction in Human Cells (interferon α; Dose Concentration 10.0 μg/mL)	Interferon (α) Induction in Human Cells (interferon α; Dose Concentration 25.0 μg/mL)	Interferon (α) Induction in Human Cells (interferon α; Dose Concentration 50.0 μg/mL)	IFN induction (IFN; Dose Concentration 0.1 μM)	TNF induction (TNF; Dose Concentration 0.1 μM)
222 to 226 °C	CC(C)Cn1cnc2c(N)nc3c(c21)NCCC3 [Example 33, 6,7,8,9-Tetrahydro-1-(2-methylpropyl)-1H-imidazo[4,5-c][1,5]naphthyridin-4-amine]	+	+	+	−	−	−	−	−	−	−	−	+	+	+	+		
230 to 231.5 °C	CC(C)Cn1cnc2c(N)nc3cccnc3c21 [Example 32, 1-(2-Methylpropyl)-1H-imidazo[4,5-c][1,5]naphthyridin-4-amine]	+	+	+	−	−	−	−	−	−	−	+	+	+	+	+		
164 to 166 °C	CCCCc1nc2c(N)nc3c(c2n1CC(C)C)CCNC3 [Example 28, 2-Butyl-6,7,8,9-tetrahydro-1-(2-methylpropyl)-1H-imidazo[4,5-c][1,7]naphthyridin-4-amine]	+	+	+	−	+	+	−	±	+	+	+	+	+	+			
